Calls of active or inactive are those of the source.
Columns and labels:
Aminopeptidase N = target: T1, Aminopeptidase N (Plasmodium falciparum FcB1/Columbia, UniProt O96935); experiment: P. falciparum M1AAP inhibitors, biochemical, fluorogenic H-Leu-NHMec substrate, 1536-well (AID 1445); design: species or system Plasmodium falciparum 3D7, 3D7
T1 sequence (O96935 whole entry): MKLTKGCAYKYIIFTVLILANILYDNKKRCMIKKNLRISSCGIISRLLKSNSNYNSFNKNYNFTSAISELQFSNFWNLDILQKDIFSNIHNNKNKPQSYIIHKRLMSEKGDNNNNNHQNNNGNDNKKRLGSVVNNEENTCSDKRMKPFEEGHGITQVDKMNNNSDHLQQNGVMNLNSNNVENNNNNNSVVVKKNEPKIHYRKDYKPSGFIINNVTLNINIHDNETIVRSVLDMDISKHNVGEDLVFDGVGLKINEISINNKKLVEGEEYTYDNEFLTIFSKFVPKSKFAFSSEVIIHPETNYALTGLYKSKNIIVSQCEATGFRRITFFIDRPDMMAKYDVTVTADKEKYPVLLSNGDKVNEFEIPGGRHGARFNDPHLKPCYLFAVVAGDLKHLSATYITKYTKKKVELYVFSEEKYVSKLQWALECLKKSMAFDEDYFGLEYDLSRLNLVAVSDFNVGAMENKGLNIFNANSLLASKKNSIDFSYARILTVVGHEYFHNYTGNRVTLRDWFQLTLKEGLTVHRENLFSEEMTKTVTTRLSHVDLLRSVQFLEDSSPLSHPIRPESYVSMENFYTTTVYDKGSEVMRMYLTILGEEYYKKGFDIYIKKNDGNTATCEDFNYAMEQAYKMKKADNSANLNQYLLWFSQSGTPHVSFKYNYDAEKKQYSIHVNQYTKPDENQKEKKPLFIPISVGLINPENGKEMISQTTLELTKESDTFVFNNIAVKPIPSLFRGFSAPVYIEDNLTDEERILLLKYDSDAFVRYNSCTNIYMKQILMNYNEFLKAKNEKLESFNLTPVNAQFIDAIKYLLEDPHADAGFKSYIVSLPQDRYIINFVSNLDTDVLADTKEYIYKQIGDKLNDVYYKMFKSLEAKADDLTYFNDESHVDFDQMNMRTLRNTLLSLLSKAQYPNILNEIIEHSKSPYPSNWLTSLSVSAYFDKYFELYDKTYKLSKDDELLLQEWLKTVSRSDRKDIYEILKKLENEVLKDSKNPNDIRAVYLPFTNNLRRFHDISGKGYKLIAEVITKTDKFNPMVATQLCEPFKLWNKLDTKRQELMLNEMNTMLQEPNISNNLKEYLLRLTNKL

Procathepsin L = Procathepsin L (Homo sapiens, UniProt P07711)
Chain of Procathepsin L (P07711 whole entry): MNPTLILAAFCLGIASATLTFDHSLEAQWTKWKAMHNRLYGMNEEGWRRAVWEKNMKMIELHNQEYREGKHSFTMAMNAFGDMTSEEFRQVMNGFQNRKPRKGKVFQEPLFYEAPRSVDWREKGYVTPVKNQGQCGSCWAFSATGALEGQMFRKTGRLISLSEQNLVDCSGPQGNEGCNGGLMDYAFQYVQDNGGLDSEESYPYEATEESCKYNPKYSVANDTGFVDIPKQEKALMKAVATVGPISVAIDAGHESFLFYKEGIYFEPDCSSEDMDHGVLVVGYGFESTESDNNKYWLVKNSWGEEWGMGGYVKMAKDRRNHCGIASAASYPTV

Leucine aminopeptidase = target: T2, Leucine aminopeptidase (Plasmodium falciparum 3D7, UniProt Q8IL11); experiment: P. falciparum M17LAP inhibitors, primary screen, biochemical, fluorogenic H-Leu-NHMec substrate, 1536-well (AID 1619); format: functional
T2 sequence (Q8IL11 whole entry): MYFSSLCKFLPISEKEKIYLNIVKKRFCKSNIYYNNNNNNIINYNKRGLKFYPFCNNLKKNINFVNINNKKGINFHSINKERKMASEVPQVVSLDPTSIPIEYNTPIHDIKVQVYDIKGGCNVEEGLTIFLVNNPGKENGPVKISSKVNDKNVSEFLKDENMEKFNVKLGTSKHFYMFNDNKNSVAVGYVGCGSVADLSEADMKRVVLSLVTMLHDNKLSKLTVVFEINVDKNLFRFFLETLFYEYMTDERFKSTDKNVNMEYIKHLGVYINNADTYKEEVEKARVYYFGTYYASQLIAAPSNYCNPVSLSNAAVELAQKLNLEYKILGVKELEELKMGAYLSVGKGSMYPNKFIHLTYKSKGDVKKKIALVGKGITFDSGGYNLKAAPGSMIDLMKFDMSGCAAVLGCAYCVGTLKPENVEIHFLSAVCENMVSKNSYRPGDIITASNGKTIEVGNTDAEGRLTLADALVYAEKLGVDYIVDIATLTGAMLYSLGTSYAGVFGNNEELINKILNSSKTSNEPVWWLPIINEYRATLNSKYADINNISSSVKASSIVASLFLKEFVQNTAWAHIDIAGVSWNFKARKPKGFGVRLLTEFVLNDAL

[1] = NIH-3T3 fibroblast cytotoxicity, dose response, cytotoxicity control, cell-based, fluorescence, Alamar Blue, secondary assay (AID 2327); format: functional;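 note: NIH-3T3 mouse fibroblasts cultured with fluconazole at 8 µg/mL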
[2] = target: T3, Histone-lysine N-methyltransferase NSD2 (Homo sapiens, UniProt O96028); format: biochemical
T3 sequence (O96028 whole entry): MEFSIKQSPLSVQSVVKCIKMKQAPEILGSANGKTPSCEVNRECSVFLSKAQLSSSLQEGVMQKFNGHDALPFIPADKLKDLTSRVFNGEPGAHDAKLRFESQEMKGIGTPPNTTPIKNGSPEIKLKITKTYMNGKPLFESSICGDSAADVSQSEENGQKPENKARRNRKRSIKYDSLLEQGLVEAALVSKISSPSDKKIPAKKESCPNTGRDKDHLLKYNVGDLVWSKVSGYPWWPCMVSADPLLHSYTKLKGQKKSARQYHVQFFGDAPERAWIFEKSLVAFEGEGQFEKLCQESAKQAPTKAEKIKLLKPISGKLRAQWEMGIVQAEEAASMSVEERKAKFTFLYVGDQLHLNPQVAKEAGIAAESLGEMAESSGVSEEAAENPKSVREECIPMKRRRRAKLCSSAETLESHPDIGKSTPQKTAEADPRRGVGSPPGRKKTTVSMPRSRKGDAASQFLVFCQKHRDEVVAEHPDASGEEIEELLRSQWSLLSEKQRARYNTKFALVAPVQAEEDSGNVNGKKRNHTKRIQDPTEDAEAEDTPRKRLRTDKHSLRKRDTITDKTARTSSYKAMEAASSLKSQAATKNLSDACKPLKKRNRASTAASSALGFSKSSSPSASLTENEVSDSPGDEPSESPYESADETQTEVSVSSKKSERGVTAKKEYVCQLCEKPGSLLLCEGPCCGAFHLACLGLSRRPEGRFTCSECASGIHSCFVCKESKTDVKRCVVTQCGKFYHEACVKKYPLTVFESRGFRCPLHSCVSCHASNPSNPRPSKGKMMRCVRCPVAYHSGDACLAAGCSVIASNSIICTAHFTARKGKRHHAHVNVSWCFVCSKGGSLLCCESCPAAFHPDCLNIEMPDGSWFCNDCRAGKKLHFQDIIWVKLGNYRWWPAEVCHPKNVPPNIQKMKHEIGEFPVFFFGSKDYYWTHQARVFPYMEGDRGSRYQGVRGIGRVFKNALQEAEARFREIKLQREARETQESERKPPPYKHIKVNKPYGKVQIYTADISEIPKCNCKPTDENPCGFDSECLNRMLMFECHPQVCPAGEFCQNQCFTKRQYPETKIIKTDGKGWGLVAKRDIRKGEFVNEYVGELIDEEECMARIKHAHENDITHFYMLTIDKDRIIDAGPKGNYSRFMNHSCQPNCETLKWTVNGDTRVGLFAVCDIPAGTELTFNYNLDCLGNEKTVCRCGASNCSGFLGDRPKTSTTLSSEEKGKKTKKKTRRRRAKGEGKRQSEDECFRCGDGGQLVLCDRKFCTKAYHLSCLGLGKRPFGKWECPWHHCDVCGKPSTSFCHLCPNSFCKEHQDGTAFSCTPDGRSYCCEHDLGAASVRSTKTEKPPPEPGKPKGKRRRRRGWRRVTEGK

[3] = C. albicans growth with fluconazole, confirmation, fluorescence, retest (AID 2467); format: functional, cell-based
Aspartyl aminopeptidase = target: T4, Aspartyl aminopeptidase (Plasmodium falciparum 3D7, UniProt Q8I2J3)
T4 sequence (Q8I2J3 whole entry): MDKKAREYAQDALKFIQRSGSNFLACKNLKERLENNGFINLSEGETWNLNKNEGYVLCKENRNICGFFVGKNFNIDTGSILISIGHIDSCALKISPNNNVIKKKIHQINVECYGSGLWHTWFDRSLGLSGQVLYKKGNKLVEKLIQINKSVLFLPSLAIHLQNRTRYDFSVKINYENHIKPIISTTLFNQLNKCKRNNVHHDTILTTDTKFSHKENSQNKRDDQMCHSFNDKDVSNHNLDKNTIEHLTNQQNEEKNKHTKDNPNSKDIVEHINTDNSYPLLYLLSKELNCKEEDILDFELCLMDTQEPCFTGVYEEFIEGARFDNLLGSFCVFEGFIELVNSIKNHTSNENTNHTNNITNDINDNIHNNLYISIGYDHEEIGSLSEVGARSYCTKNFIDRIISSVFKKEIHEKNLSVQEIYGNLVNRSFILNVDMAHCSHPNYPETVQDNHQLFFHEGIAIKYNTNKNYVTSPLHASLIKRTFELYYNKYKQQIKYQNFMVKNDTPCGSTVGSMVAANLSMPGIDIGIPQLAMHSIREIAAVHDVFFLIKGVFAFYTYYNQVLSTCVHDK

Large T antigen = Large T antigen (Simian virus 40, UniProt P03070); format: functional, Betapolyomavirus macacae;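 note: Confirmatory-stage PubChem screen for compounds that inhibit SV40 T antigen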
Chain of Large T antigen (P03070 whole entry): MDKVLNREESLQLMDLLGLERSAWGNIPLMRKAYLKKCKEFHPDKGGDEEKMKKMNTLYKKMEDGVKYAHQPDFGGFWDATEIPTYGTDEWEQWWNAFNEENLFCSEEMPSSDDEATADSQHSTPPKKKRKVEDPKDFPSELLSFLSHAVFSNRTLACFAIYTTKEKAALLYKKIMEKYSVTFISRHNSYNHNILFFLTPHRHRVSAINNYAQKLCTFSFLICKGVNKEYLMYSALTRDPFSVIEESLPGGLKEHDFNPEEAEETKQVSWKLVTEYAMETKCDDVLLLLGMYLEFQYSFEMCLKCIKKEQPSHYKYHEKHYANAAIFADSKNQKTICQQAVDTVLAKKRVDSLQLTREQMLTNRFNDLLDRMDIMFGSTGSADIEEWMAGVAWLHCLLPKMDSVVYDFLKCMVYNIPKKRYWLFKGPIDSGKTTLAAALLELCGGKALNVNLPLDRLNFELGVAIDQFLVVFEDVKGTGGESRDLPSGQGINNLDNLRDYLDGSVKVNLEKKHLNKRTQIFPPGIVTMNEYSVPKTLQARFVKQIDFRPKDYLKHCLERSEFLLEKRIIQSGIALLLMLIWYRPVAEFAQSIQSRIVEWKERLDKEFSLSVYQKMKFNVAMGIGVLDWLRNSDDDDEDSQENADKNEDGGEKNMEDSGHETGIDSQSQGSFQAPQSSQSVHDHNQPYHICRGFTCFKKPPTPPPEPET

[4] = target: Glucose-6-phosphate 1-dehydrogenase (Homo sapiens, UniProt P11413); experiment: human G6PD enzyme inhibitors, dose response, selectivity assay for P. falciparum G6PD inhibitor project, biochemical, fluorescence (AID 504792); format: functional
Chain of Glucose-6-phosphate 1-dehydrogenase (P11413 whole entry): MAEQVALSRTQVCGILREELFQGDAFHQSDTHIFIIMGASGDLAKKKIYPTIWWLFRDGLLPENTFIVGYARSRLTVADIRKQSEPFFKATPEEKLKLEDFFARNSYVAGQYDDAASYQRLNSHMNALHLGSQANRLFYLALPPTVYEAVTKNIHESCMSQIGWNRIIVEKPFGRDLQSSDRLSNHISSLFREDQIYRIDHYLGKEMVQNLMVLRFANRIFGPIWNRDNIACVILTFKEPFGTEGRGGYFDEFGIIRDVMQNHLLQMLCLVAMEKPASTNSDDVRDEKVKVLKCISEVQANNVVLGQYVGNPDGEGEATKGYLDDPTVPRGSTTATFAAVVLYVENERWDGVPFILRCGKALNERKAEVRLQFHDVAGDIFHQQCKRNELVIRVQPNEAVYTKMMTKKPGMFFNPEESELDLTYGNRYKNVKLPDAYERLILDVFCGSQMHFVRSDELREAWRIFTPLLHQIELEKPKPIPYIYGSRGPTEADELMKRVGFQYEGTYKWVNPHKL

[5] = target: T5, Mannose-6-phosphate isomerase (Homo sapiens, UniProt P34949); experiment: human PMI inhibitors, high substrate, primary screen, biochemical, fluorescence intensity, high mannose 6-phosphate (AID 1220)
T5 sequence (P34949 whole entry): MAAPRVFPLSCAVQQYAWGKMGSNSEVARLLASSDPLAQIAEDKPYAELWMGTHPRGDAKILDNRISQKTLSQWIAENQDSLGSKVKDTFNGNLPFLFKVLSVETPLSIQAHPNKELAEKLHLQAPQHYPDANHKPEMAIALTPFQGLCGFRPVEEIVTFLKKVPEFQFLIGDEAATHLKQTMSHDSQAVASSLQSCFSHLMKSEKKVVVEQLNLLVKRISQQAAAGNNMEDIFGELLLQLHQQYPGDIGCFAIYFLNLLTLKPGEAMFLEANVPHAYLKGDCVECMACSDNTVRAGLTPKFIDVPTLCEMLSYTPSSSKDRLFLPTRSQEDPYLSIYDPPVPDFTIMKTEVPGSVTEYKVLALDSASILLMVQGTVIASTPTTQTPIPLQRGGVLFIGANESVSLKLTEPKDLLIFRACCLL

Row | SMILES | IC50 (Aminopeptidase N) | IC50 (Procathepsin L) | IC50 (Leucine aminopeptidase) | EC50 [1] | AC50 [2] | EC50 [3] | IC50 (Aspartyl aminopeptidase) | IC50 (Large T antigen) | IC50 [4] | IC50 [5]
1 | CCOc1cc(/C=C2\N=C(SC)SC2=O)cc([N+](=O)[O-])c1OC(C)=O | 26.5 µM (active) | – | – | – | – | – | – | – | – | –
2 | COc1cccc2c(SCC(=O)N/N=C/c3ccc(O)c(O)c3)cc(C)nc12 | – | > 59.6 µM (not active) | 16.2 µM (active) | 26.3 µM (active) | 10.4 µM (active) | > 38 µM (not active) | 2.01 µM (active) | – | – | –
3 | COc1cc(/C=C2\SC(=S)N(NS(=O)(=O)c3ccc(C)cc3)C2=O)ccc1O | 19.2 µM (active) | – | 27.1 µM (active) | – | – | – | – | 10.1 µM (active) | – | –
4 | C[C@]12CC[C@@H]3c4ccc(O)c(O)c4CC[C@H]3[C@@H]1CC[C@@H]2O | – | > 59.6 µM (not active) | – | – | – | – | 1.22 µM (active) | – | 29.1 µM (inactive) | 29 µM (active)

— ChEMBL document CHEMBL1201862, “PubChem BioAssay data set” (2004)
